The source of these data is patent publication US11787775B2, “Therapeutic compounds and methods of use” (priority 2020, dated 2023).

Holding throughout (assay): TEAD lipid pocket TR-FRET (Lipid HTRF) probe competition assay
What all share (assay type): binding

One experiment deals with TEAD1 (Homo sapiens (Human), UniProt P28347). As for the experimental part: (§1) His-tagged TEAD proteins are pre-incubated with TEAD project compounds for 30 minutes or 4 hours at room temperature. Biotinylated lipid pocket probes are then added to the TEAD/Compound mixture and incubated for 60 minutes at room temperature. The lipid pocket probe competes with the test compound for the TEAD lipid pocket until equilibrium is reached. After 60 minutes, Europium labelled anti-His (Perkin Elmer #ADO 110) and XL665 labelled streptavidin (CIS Bio 610SAXAC) are added to the TEAD/test compound/lipid pocket mixture and incubated for 30 minutes or 4 hours. […] If a TEAD lipid pocket binder such as binds and displaces the lipid pocket probe, the disruption of the TEAD:probe interaction results in a decrease in TR-FRET signal. The potency of compounds as TEAD lipid pocket binders is determined by IC50 value generated using a non-linear 4 parameter curve fit.
Sequence of TEAD1 (P28347 whole entry, species assumed): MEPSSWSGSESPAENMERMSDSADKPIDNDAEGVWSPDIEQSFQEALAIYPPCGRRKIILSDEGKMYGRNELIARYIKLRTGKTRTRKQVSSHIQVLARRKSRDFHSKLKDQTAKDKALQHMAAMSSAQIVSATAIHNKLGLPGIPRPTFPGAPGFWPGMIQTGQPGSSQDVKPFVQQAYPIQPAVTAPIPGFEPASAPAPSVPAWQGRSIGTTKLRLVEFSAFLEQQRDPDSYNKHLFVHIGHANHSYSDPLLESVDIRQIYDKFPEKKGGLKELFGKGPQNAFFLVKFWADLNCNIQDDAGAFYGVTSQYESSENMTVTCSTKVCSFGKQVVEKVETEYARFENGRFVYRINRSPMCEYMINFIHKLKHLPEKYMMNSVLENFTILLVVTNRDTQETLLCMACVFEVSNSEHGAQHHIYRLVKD
(§2) Note that the “Compound Number” in Table 2 and Table 3 corresponds to the “Compound Number” in Table 1.

A further experiment concerns the target TEAD2 (Homo sapiens (Human), UniProt Q15562). As to the method: as §1, §2
Another experiment addresses TEAD3 (Homo sapiens (Human), UniProt Q99594). The note with it: 4 hours incubation with compound. As to the method: as §1, §2
The next experiment deals with TEAD4 (Homo sapiens (Human), UniProt Q15561). As for the experimental part: as §1, §2
Sequence of TEAD4 (Q15561 whole entry, species assumed): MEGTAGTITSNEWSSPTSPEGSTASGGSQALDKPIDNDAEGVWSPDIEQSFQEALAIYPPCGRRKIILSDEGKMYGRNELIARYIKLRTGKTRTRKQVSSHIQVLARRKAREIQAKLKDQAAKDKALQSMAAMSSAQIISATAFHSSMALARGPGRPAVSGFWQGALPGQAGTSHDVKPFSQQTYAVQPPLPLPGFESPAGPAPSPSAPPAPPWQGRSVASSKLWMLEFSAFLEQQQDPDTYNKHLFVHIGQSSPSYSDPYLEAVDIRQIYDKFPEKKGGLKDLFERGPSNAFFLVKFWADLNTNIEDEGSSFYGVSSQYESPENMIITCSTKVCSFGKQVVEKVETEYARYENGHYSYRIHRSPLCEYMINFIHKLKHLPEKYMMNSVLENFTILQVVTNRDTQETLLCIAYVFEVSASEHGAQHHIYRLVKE
Setting [1] is: 4 hours incubation with compound, read-out: Lipid HTRF TEAD1 IC50.
[2] abbreviates: 4 hours incubation with compound, read-out: Lipid HTRF TEAD2 IC50.
Where [3] appears, read: 4 hours incubation with compound, read-out: Lipid HTRF TEAD4 IC50.
The mark [4] stands for this setting: Lipid HTRF TEAD4 IC50, 4 hours incubation with compound.

Read-outs that look alike come from different tables or passages of the source.

Sequence of TEAD2 (Q15562 whole entry): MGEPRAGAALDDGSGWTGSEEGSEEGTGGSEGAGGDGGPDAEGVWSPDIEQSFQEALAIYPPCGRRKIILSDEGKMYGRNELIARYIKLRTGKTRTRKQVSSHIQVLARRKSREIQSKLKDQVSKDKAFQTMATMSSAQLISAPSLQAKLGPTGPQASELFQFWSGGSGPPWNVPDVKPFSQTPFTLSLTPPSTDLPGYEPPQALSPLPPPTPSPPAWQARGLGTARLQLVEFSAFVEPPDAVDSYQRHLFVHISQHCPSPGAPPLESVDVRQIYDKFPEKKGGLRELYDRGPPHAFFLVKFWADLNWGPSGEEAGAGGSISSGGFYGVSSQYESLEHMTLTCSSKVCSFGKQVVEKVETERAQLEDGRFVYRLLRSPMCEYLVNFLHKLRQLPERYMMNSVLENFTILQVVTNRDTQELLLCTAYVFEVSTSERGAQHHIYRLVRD
Sequence of TEAD3 (Q99594 whole entry, species assumed): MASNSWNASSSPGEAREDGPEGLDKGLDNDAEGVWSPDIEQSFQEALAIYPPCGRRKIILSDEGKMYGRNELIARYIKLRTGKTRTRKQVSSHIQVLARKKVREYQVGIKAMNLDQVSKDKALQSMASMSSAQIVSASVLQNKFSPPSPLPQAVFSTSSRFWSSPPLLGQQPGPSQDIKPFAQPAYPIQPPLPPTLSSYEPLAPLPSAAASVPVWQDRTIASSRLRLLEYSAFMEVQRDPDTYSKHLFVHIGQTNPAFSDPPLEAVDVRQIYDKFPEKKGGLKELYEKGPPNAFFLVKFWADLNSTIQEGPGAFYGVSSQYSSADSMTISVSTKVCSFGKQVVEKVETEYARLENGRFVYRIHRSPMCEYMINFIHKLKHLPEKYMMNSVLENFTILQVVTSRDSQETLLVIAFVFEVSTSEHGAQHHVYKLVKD

For `C=C(CNc1cc(-c2ncc(C(C)C)s2)c2c(c1C#N)CCO2)C(=O)NO` [Compound 27, 2-[[[4-cyano-7-(5-isopropylthiazol-2-yl)-2,3-dihydrobenzofuran-5-yl]amino]methyl]prop-2-enehydroxamic acid], the IC50 is 310 nM on TEAD1 (setting [1]), 110 nM on TEAD2 (setting [2]), greater than 50000 nM at TEAD3 and 170 nM at TEAD4 (setting [3]).
Regarding `[2H]C1([2H])COc2c(-c3ccc(C(C)C)cc3)cc(NCC(=C)C(=O)NO)c(C#N)c21` [Compound 29, 2-[[[4-cyano-3,3-dideuterio-7-(4-isopropylphenyl)-2H-benzofuran-5-yl]amino]methyl]prop-2-enehydroxamic acid], the IC50 worked out at 60 nM at TEAD1 (setting [1]), 10 nM on TEAD2 (setting [2]), 430 nM on TEAD3 and 40 nM at TEAD4 (setting [3]).
Consider `C=C(CNc1cc(-c2nc(C(C)C)cs2)c2c(c1C#N)CCO2)C(=O)NO` [Compound 31, 2-[[[4-cyano-7-(4-isopropylthiazol-2-yl)-2,3-dihydrobenzofuran-5-yl]amino]methyl]prop-2-enehydroxamic acid], for which the IC50 at TEAD1 (setting [1]) was greater than 50000 nM; on TEAD2 (setting [2]), 860 nM; at TEAD3 it was greater than 50000 nM; on TEAD4 (setting [3]), 36000 nM.
Turning to `C=C(CNc1cc(-c2cc(C(C)C)cs2)c2c(c1C#N)CCO2)C(=O)O` [Compound 32, 2-[[[4-cyano-7-(4-isopropyl-2-thienyl)-2,3-dihydrobenzofuran-5-yl]amino]methyl]prop-2-enoic acid], the IC50 at TEAD1 (setting [1]) turned out to be 10 nM; at TEAD2 (setting [2]) it was 40 nM; at TEAD3, 430 nM; on TEAD4 (setting [3]), 10 nM.
Take `[2H]C1([2H])COc2c(-c3ccc(C(C)C)cc3)cc(NCC(=C)C(N)=O)c(C#N)c21` [Compound 33, 2-[[[4-cyano-3,3-dideuterio-7-(4-isopropylphenyl)-2H-benzofuran-5-yl]amino]methyl]prop-2-enamide]: the 50% inhibitory concentration (IC50) on TEAD1 (setting [1]) is 180 nM; at TEAD2 (setting [2]), 60 nM; on TEAD3, 1400 nM; on TEAD4 (setting [4]), 80 nM.
Take `C=C(CNc1cc(-c2ccc(OC(F)(F)F)cc2)c2c(c1CO)CCO2)C(N)=O` [Compound 35, 2-[[[4-(hydroxymethyl)-7-[4-(trifluoromethoxy)phenyl]-2,3-dihydrobenzofuran-5-yl]amino]methyl]prop-2-enamide]: the IC50 on TEAD1 (setting [1]) amounted to 160 nM; on TEAD2 (setting [2]), 30 nM; on TEAD3, 1700 nM; at TEAD4 (setting [3]), 250 nM.
Consider `C=C(CNc1cc(-n2ccc(C(C)C)n2)c2c(c1C#N)CCO2)C(=O)NO` [Compound 36, 2-[[[4-cyano-7-(3-isopropylpyrazol-1-yl)-2,3-dihydrobenzofuran-5-yl]amino]methyl]prop-2-enehydroxamic acid], for which the half-maximal inhibitory concentration (IC50) at TEAD1 (setting [1]) is greater than 50000 nM; on TEAD2 (setting [2]), 710 nM; on TEAD3, greater than 50000 nM; at TEAD4 (setting [3]) it was greater than 50000 nM.
Consider `[2H]C1([2H])Cc2c(C#N)c(NCC(=C)C(=O)NO)cc(-c3ccc(OC(F)(F)F)cc3)c2O1` [Compound 37, 2-[[[4-cyano-2,2-dideuterio-7-[4-(trifluoromethoxy)phenyl]-3H-benzofuran-5-yl]amino]methyl]prop-2-enehydroxamic acid], for which the IC50 at TEAD1 (setting [1]) stood at 50 nM; at TEAD2 (Lipid HTRF TEAD2 IC50, 4 hours incubation with compound), 10 nM; on TEAD3 it was 420 nM; at TEAD4 (setting [3]), 50 nM.
Regarding `C=C(CNc1cc(-c2ccc(S(F)(F)(F)(F)F)cc2)c2c(c1C#N)CCO2)C(=O)NO` [Compound 38, 2-[[[4-cyano-7-[4-(pentafluoro-lambda6-sulfanyl)phenyl]-2,3-dihydrobenzofuran-5-yl]amino]methyl]prop-2-enehydroxamic acid], the half-maximal inhibitory concentration (IC50) was 90 nM on TEAD1 (setting [1]), 30 nM at TEAD2 (setting [2]), 710 nM at TEAD3 and 80 nM on TEAD4 (setting [3]).
For `C=C(CNc1cc(-c2ccc(OC(F)(F)F)cc2)c2c(c1C#N)CCO2)C(=O)NO` [Compound 39, 2-[[[4-cyano-7-[4-(trifluoromethoxy)phenyl]-2,3-dihydrobenzofuran-5-yl]amino]methyl]prop-2-enehydroxamic acid], the IC50 on TEAD1 (setting [1]) turned out to be 40 nM; at TEAD2 (setting [2]) it was 10 nM; at TEAD3, 400 nM; at TEAD4 (setting [3]), 60 nM.
`[2H]C1([2H])COc2c(-c3ccc(C(C)C)cc3)cc(NCC(=C)C(=O)O)c(C#N)c21` [Compound 40, 2-[[[4-cyano-3,3-dideuterio-7-(4-isopropylphenyl)-2H-benzofuran-5-yl]amino]methyl]prop-2-enoic acid]: the IC50 on TEAD1 (Lipid HTRF TEAD1 IC50, 4 hours incubation with compound) was 20 nM; at TEAD2 (setting [2]) it was 40 nM; at TEAD3 it was 680 nM; at TEAD4 (setting [4]), 20 nM.
Consider `C=C(CNc1cc(-c2ccc(OC(F)(F)F)cc2)c2ncsc2c1C#N)C(=O)NO` [Compound 41, 2-[[[7-cyano-4-[4-(trifluoromethoxy)phenyl]-1,3-benzothiazol-6-yl]amino]methyl]prop-2-enehydroxamic acid], for which the IC50 was 80 nM at TEAD1 (setting [1]), 10 nM at TEAD2 (setting [2]), 660 nM at TEAD3 and 40 nM at TEAD4 (setting [3]).
Consider `C=C(CNc1cc(-c2ccc(OC(F)(F)F)cc2)c2c(c1C#N)CCO2)C(=O)N(C)O` [Compound 43, 2-[[[4-cyano-7-[4-(trifluoromethoxy)phenyl]-2,3-dihydrobenzofuran-5-yl]amino]methyl]-N-hydroxy-N-methyl-prop-2-enamide], for which the IC50 turned out to be 400 nM at TEAD1 (setting [1]), 1700 nM at TEAD2 (setting [2]), 18000 nM at TEAD3 and 520 nM at TEAD4 (setting [3]).
Taken in the same sequence, the figures for `C=C(CNc1cc(-c2ccc(OC(F)(F)F)cc2)c2c(c1C#N)CCO2)C(N)=O` [Compound 44, 2-[[[4-cyano-7-[4-(trifluoromethoxy)phenyl]-2,3-dihydrobenzofuran-5-yl]amino]methyl]prop-2-enamide] were 110 nM, 40 nM, 1200 nM and 140 nM.
Take `C=C(CNc1cc(-c2ccc(S(F)(F)(F)(F)F)cc2)c2c(c1C#N)CCO2)C(=O)O` [Compound 45, 2-[[[4-cyano-7-[4-(pentafluoro-lambda6-sulfanyl)phenyl]-2,3-dihydrobenzofuran-5-yl]amino]methyl]prop-2-enoic acid]: the half-inhibitory concentration (IC50) was 30 nM at TEAD1 (setting [1]), 170 nM at TEAD2 (setting [2]), 920 nM on TEAD3 and 80 nM on TEAD4 (setting [3]).
Taken in the same sequence, the figures for `C=C(CNc1cc(-c2ccc(OC(F)(F)F)cc2)c2c(c1CO)CCO2)C(=O)NO` [Compound 46, 2-[[[4-(hydroxymethyl)-7-[4-(trifluoromethoxy)phenyl]-2,3-dihydrobenzofuran-5-yl]amino]methyl]prop-2-enehydroxamic acid] were 50 nM, 10 nM, 440 nM and 60 nM.
As for `C=C(CNc1cc(-c2ccc(S(F)(F)(F)(F)F)cc2)c2c(c1C#N)CCO2)C(N)=O` [Compound 48, 2-[[[4-cyano-7-[4-(pentafluoro-lambda6-sulfanyl)phenyl]-2,3-dihydrobenzofuran-5-yl]amino]methyl]prop-2-enamide], the IC50 worked out at 250 nM on TEAD1 (setting [1]), 220 nM on TEAD2 (setting [2]), 2600 nM on TEAD3 and 260 nM at TEAD4 (setting [3]).
`C=C(CNc1cc(-c2ncc(C(C)C)s2)c2c(c1C#N)CCO2)C(=O)O` [Compound 49, 2-[[[4-cyano-7-(5-isopropylthiazol-2-yl)-2,3-dihydrobenzofuran-5-yl]amino]methyl]prop-2-enoic acid]: the IC50 at TEAD1 (setting [1]) worked out at 310 nM; at TEAD2 (setting [2]), 240 nM; on TEAD3, 2800 nM; at TEAD4 (setting [3]) it was 90 nM.
The corresponding values for `C=C(CNc1cc(-c2ccc(S(F)(F)(F)(F)F)cc2)c2ncsc2c1C#N)C(=O)NO` [Compound 51, 2-[[[7-cyano-4-[4-(pentafluoro-lambda6-sulfanyl)phenyl]-1,3-benzothiazol-6-yl]amino]methyl]prop-2-enehydroxamic acid] are 200 nM, 30 nM, 1200 nM and 60 nM.
